In ChEMBL document CHEMBL1156829 (Proc Natl Acad Sci U S A, 2008):

Legend:
Plasmodium falciparum [1] = experiment: NOVARTIS: Inhibition of Plasmodium falciparum W2 (drug-resistant) proliferation in erythrocyte-based infection assay; type: functional, organism-based; details: Plasmodium falciparum, W2; read-out: EC50
Plasmodium falciparum [2] = experiment: NOVARTIS: Inhibition of Plasmodium falciparum 3D7 (drug-susceptible) proliferation in erythrocyte-based infection assay; type: functional, organism-based; details: Plasmodium falciparum, 3D7
[3] = NOVARTIS: Cytotoxicity against human hepatocellular carcinoma cell line (Huh7); type: toxicity, cell-based, Huh-7; details: Huh7 cells (hepatocellular carcinoma cell line)

Row | SMILES | EC50 (Plasmodium falciparum [1]) | EC50 (Plasmodium falciparum [2]) | CC50 [3]
1 | CN(C)CCCNc1c2ccccc2nc2ccccc12 | 387 nM | 32.7 nM | 8.45 µM
2 | c1ccc(-c2nc(NCCCn3ccnc3)cc(-c3ccncc3)n2)cc1 | 458 nM | 238 nM | > 10 µM
3 | CN(C)CCn1c(=N)n(CC(O)c2ccc(Cl)c(Cl)c2)c2ccccc21 (stereo not given) | 457 nM | 256 nM | > 10 µM
4 | O=C(Cn1c2ccccc2c(=O)c2ccc(Cl)cc21)Nc1ccc(C(F)(F)F)cc1 | 4540 nM | 9870 nM | > 100 µM
5 | Cc1cc(Nc2cccc(C(F)(F)F)c2)nc(N)n1 | 1860 nM | 676 nM | 39.6 µM
6 | COc1cc(NC(C)CCCN(Cc2ccc(OC)c(OC)c2)C(=O)c2ccc3ccccc3c2)c2ncccc2c1 (stereo not given) | 247 nM | 409 nM | 5.33 µM
7 | OCCNc1nc(Nc2ccc(Br)cc2)nc2ccccc12 | 566 nM | 490 nM | 12.1 µM
8 | CC[C@@H](C(=O)[C@@H](C)[C@@H](O)[C@H](C)CCc1ccc(C)c(O)c1C(=O)O)[C@H]1O[C@](CC)([C@H]2CC[C@](O)(CC)[C@@H](C)O2)C[C@@H]1C | 468 nM | 726 nM | > 10 µM
9 | OC1(c2ccc(Br)cc2)CCN(C2CCN(Cc3ccccc3)CC2)CC1 | 433 nM | 183 nM | 9.26 µM
10 | COc1cc(NC(C)CCCN(Cc2ccc(N(C)C)cc2)S(=O)(=O)c2cccc3ccccc23)c2ncccc2c1 (stereo not given) | 645 nM | 806 nM | > 13.9 µM
11 | CC(NS(=O)(=O)c1ccccc1)C(=O)NC1CCCC1 (stereo not given) | 4620 nM | > 4320 nM | > 100 µM
12 | CCOC(=O)c1ccc2nc3c(nc2c1)C(=O)c1ccccc1C3=O | 23.6 nM | 26.7 nM | 0.512 µM
13 | COc1ccccc1NC1=CC(=NS(=O)(=O)c2cccs2)c2ccccc2C1=O | 906 nM | 1070 nM | 19.7 µM
14 | CN(C)c1cc[n+](OC(=O)N2CCCCC2)cc1 | > 455 nM | 133 nM | > 10 µM
15 | CCOc1ccc(Nc2nc(NCc3ccco3)c3ccccc3n2)cc1 | 528 nM | 288 nM | 11.6 µM
16 | Brc1ccc(-c2cn3c([n+]2Cc2ccccc2)SCCC3)cc1 | 2450 nM | 413 nM | 53.3 µM
17 | CN(CCCNc1ccnc2cc(Cl)ccc12)C(=O)c1cc(Cl)cc(Cl)c1 | 460 nM | 235 nM | > 10 µM
18 | CCCCCCCc1ccc(-c2nnc(-c3ccc([N+](=O)[O-])cc3)o2)cc1 | > 459 nM | > 1250 nM | > 10 µM
19 | CCOC(=O)C1=C(C)N(c2ccc(N(C)C)cc2)C(C)=C(C(=O)OCC)C1c1ccc(Br)cc1 | 896 nM | > 1130 nM | 19.6 µM
20 | CCC(C)NC(=O)C1CSC(c2cccc(F)c2)N1C(=O)c1cc(OC)c(OC)c(OC)c1 (stereo not given) | 29.8 nM | > 1250 nM | > 0.654 µM
21 | Cn1nc(C(=O)NCc2ccc(F)cc2)c2c1CCC(N1CCC(CO)CC1)C2 (stereo not given) | > 454 nM | > 1250 nM | > 10 µM
22 | CCOC(=O)C1(CC2CCCCO2)CCN(C(=O)Nc2cccc(SC)c2)CC1 (stereo not given) | 4530 nM | > 12500 nM | > 100 µM
23 | O=C(Cn1ccc(=NCc2ccccc2)cc1)c1ccc(Cl)cc1 | 602 nM | 296 nM | 12.8 µM
24 | CC(C)CC(N)C(=O)N1CCc2nc(Cc3ccc(F)cc3Cl)sc2C1 (stereo not given) | 471 nM | > 1250 nM | > 10 µM
25 | O=C(Nc1ccccc1C(=O)O)c1cccc(NC(=O)c2ccco2)c1 | 471 nM | > 947 nM | > 10 µM

Row | SMILES | EC50 (Plasmodium falciparum [1]) | EC50 (Plasmodium falciparum [2]) | CC50 [3]
26 | CCN(CC)c1ccc(NC(=O)C2Cc3ccccc3CN2S(=O)(=O)c2ccc(F)cc2)cc1 (stereo not given) | 4530 nM | 7430 nM | > 100 µM
27 | O=C(NCCCCNc1ccnc2cc(Cl)ccc12)c1cccc(Br)c1 | 453 nM | 422 nM | > 10 µM
28 | CCC(c1nc2ccccc2c(=O)n1CCOC)N1CCNCC1 (stereo not given) | > 469 nM | 369 nM | > 10 µM
29 | Oc1ccccc1-c1nc2sc(-c3ccccc3O)nc2s1 | 467 nM | > 989 nM | > 10 µM
30 | CCc1cc(C(=O)N2CCC[C@@H]3CN(C(=O)c4ccc(F)cc4)CC[C@@H]32)n(C)n1 | 4670 nM | > 12500 nM | > 100 µM
31 | O=C1CN=C(c2ccccc2Cl)c2cc(Cl)ccc2N1Cc1cccc([N+](=O)[O-])c1 | > 4670 nM | > 4470 nM | > 100 µM
32 | COc1ccc(-c2cnnc(NN=Cc3ccc([N+](=O)[O-])o3)n2)cc1 | > 464 nM | > 1250 nM | > 10 µM
33 | Cc1cc(NC2CCCCC2)nc(NCc2ccccc2)n1 | 364 nM | 296 nM | 7.87 µM
34 | CN(Cc1cc2ccc(F)cc2n(CCN2CCCCC2)c1=O)CC1COCCO1 (stereo not given) | 4620 nM | > 12500 nM | > 100 µM
35 | CCOc1cccc2oc(=O)c(C(=O)Nc3cc(C(C)(C)C)on3)cc12 | > 4620 nM | > 11700 nM | > 100 µM
36 | CCN1CCN(c2cc(C)c3cc(NC(=O)c4cc(OC)cc(OC)c4)ccc3n2)CC1 | 587 nM | 183 nM | 12.9 µM
37 | COc1cc2nc(SCC(C)C)n(CCCn3ccnc3)c(=N)c2cc1OC | 926 nM | 822 nM | 19.9 µM
38 | C/C=C/[P+](c1ccccc1)(c1ccccc1)c1ccccc1 | 130 nM | 52.8 nM | 2.81 µM
39 | OC1(c2ccc(Cl)c(C(F)(F)F)c2)CCN(CCOC2c3ccccc3CSc3ccc(Cl)cc32)CC1 (stereo not given) | 888 nM | 1010 nM | 19.2 µM
40 | CCN(C(C)=O)C1=C(N2CCOCC2)C(=O)c2ccccc2C1=O | 185 nM | 168 nM | 4.09 µM
41 | O=C(Nc1ccc(Oc2cccc(Oc3ccc(NC(=O)c4ccc(Br)o4)cc3)c2)cc1)c1ccc(Br)o1 | 4710 nM | 4420 nM | > 100 µM
42 | O=C(NC1CC1)C1CCN(S(=O)(=O)c2ccc(Cl)cc2)CC1 | 4720 nM | 5000 nM | > 100 µM
43 | O=C(CN1CCCC1)Nc1c2c(nc3c1CCC3)CCC2 | > 462 nM | > 1250 nM | > 10 µM
44 | CCOC(=O)C1=C(c2ccccc2)N=c2sc(=Cc3c(C)n(Cc4ccc(F)cc4)c4ccccc34)c(=O)n2C1c1cccc(OC)c1OC (stereo not given) | 4620 nM | 1130 nM | > 100 µM
45 | c1ccc(N=c2n(-c3ccccc3)c(=Nc3ccccc3)n(-c3ccccc3)c(=Nc3ccccc3)n2-c2ccccc2)cc1 | > 468 nM | > 1350 nM | > 10 µM
46 | CC(C)(C)C1=NN(CC(=O)NCCc2c[nH]cn2)C(=O)c2cc3ccccc3n2C1 | > 614 nM | > 1250 nM | > 13.2 µM
47 | N#Cc1ccccc1Cn1ccc(=NCc2ccccc2)cc1 | > 465 nM | 1060 nM | > 10 µM
48 | O=C(c1cc2nc(-c3ccccc3)cc(C(F)(F)F)n2n1)N1CCN(Cc2ccccc2)CC1 | 4590 nM | 2920 nM | > 100 µM
49 | CN1CCC(N2CCC(Oc3cccc(C(=O)NCCC4=CCCCC4)c3)CC2)CC1 | 944 nM | 780 nM | 20.7 µM
50 | O=C(c1ccc2ccccc2c1)N1CCc2ccccc21 | 4570 nM | 3500 nM | > 100 µM
